Columns and labels:
Format in all cases: cell-based
MOR = MOR (Homo sapiens, UniProt P35372); experiment: MOR calcium mobilization agonist/antagonist screen (CHO-RD-HGA16 cells); design: host or cells: CHO-RD-HGA16; settings: single concentration; for Emax: CHO-RD-HGA16, agonist screen, control agonist DAMGO
Procedure: (§1) Compounds were evaluated for kappa (KOR), mu (MOR), and delta (DOR) opioid receptor agonist and antagonist activity in three individual cell lines overexpressing Gαq16 (CHO-RD-HGA16, Molecular Devices) and the human kappa, mu, and delta opioid receptors, respectively. The day before the assay, cells were plated into 96-well black-walled assay plates at 30,000 cells/well in Ham's F12 supplemented with 10% fetal bovine serum, and 100 units of penicillin and streptomycin. The cells were incubated overnight at 37° C., 5% CO2. Prior to the assay, Calcium 5 dye (Molecular Devices) was reconstituted according to the manufacturer's instructions. The reconstituted dye was diluted 1:40 in pre-warmed (37° C.) assay buffer (1×HBSS, 20 mM HEPES, 2.5 mM probenecid, pH 7.4 at 37° C.). Growth medium was removed and the cells were gently washed with 100 μL of pre-warmed (37° C.) assay buffer. The cells were incubated for 45 minutes at 37° C., 5% CO2 in 200 μL of the diluted Calcium 5 dye. For the agonist screen, a single concentration of each test compound and receptor-specific controls (U69,593, DAMGO, and DPDPE for KOR, MOR, and DOR, respectively) were prepared at 10× the desired final concentration in 1% DMSO/assay buffer, aliquoted into a 96-well polystyrene plate, and warmed to 37° C. After the dye-loading incubation period, pretreatment solution was added to each well (25 μL of 9% DMSO/assay buffer) and, after 15 min, the plate was read with a FlexStation II (Molecular Devices). Calcium-mediated changes in fluorescence were monitored every 1.52 seconds over a 60 second time period, with the FlexStation II adding 50 μL of test compounds at the 19 second time point (excitation at 485 nm, detection at 525 nm). Peak kinetic reduction (SoftMax, Molecular Devices) relative fluorescence units (RFU) were used to calculate % control agonist Emax with the equation % Emax=(test compound RFU/control agonist RFU)×100. For the antagonist screens, the same procedure was followed except that the pretreatment solution consisted of the test compounds (prepared at […] the desired final concentration in 9% DMSO/assay buffer) and the FlexStation added the EC60 concentration (prepared at 10× the desired final concentration in 1% DMSO/assay buffer) of each respective control agonist. Peak RFU were used to calculate % control EC60 inhibition with the equation % inhibition=((EC60 RFU−test compound RFU)/EC60 RFU)×100. When IC50 determinations were made, the same antagonist screen procedure was followed except that cells were pretreated with 8-pt concentration-response curves of the test compounds. Peak RFU were plotted against the log of compound concentration using non-linear regression analysis to generate IC50 values (GraphPad Prism). Each test sample was analyzed in duplicate in two independent experiments.

KOR = KOR (Homo sapiens, UniProt P41145); experiment: NanoBiT-based β-arrestin recruitment assay, KOR; design: expressed in transfected cells; host or cells: U87; settings: concentration range 0.15 nM to 80 μM; reference Dynorphin A
Procedure: The ability of the different molecules to activate the four opioid receptors MOR, DOR, KOR and NOP that are known to mediate in vivo analgesic effects was tested using the NanoBiT-based β-arrestin-2 recruitment assay in a concentration range of 0.15 nM to 80 μM. For each of these receptors a reference ligand corresponding to an endogenous opioid peptide i.e. Met-enkephalin, BAM22, Dynorphin A and Nociceptin, respectively was included.
Ligand-induced β-arrestin recruitment to chemokine and opioid receptors was monitored by NanoLuc complementation assay (NanoBiT, Promega). In brief, 1.2×10^6 U87 cells were plated in 10-cm culture dishes and 48 hours later co-transfected with pNBe vectors encoding GPCRs (ACKR3, MOR, DOR, KOR, or NOP) C-terminally tagged with SmBiT and human β-arrestin-1 (arrestin-2) or β-arrestin-2 (arrestin-3) N-terminally fused to LgBiT. 48 hours post-transfection cells were harvested, incubated 25 minutes at 37° C. with Nano-Glo Live Cell substrate diluted 200-fold and distributed into white 96-well plates (5×10^4 cells per well). Ligand-induced, β-arrestin to GPCRs was evaluated with a Mithras LB940 luminometer (Berthold Technologies, running on MicroWin 2010 5.19 software (Mikrotek Laborsysteme)) for 20 minutes.
For concentration-response curves (FIG. 2), the signal recorded with a saturating concentration of full agonist for each receptor was set as 100%. […]

DOR = DOR (Homo sapiens, UniProt P41143); experiment: DOR calcium mobilization agonist/antagonist screen (CHO-RD-HGA16 cells); design: host or cells: CHO-RD-HGA16; settings: single concentration; for Emax: CHO-RD-HGA16, agonist screen, control agonist DPDPE
Procedure: as §1

CX3CR1 = biological target: T1, CX3CR1 (Homo sapiens, UniProt P49238); experiment: NanoBiT β-arrestin-1 recruitment, receptor selectivity panel, CX3CR1; settings: higher concentrations (3 μM, 10 μM); FIG. 3 sections B and C
T1 construct: expressed in transfected cells; host or cells: U87
T1 sequence (P49238 1-355): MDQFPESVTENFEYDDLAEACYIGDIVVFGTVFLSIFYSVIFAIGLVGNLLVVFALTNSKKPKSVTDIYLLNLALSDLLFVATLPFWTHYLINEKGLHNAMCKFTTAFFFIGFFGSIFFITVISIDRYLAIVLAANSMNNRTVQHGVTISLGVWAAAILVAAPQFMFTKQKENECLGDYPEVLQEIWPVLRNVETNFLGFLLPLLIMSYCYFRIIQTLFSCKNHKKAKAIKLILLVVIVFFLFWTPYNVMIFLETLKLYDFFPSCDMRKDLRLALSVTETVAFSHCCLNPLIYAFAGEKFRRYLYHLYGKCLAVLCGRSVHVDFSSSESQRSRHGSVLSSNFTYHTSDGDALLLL
Procedure: To further assess the selectivity profile of the compounds of the invention towards ACKR3, the ability to activate the 21 classical and 4 atypical chemokines receptors and related receptors was tested using the NanoBiT assay based β-arrestin-1 recruitment described previously. The 4 classical opioid receptors described above were also included in the experimental setup. The compounds WW-1 (conolidine) and WW-12 were tested at three different concentrations, 1 μM, 3 μM and 10 μM.
This possible off-target effect was further characterized by comparing the ability of the two molecules to activate receptors ACKR4, CX3CR1 and CCR3 with reference ligands for the receptors, namely CCL19, CX3CL1 and CCL13.
Ligand-induced β-arrestin recruitment to chemokine and opioid receptors was monitored by NanoLuc complementation assay (NanoBiT, Promega). […] Ligand-induced, β-arrestin to GPCRs was evaluated with a Mithras LB940 luminometer (Berthold Technologies, running on MicroWin 2010 5.19 software (Mikrotek Laborsysteme)) for 20 minutes.
For single dose screening experiments on all chemokine receptors(FIG. 3), the results are represented as percentage of signal monitored with 100 nM of one known agonist chemokine listed in the IUPHAR repository of chemokine receptor ligands which was added as positive control.

Chain of MOR (P35372 whole entry): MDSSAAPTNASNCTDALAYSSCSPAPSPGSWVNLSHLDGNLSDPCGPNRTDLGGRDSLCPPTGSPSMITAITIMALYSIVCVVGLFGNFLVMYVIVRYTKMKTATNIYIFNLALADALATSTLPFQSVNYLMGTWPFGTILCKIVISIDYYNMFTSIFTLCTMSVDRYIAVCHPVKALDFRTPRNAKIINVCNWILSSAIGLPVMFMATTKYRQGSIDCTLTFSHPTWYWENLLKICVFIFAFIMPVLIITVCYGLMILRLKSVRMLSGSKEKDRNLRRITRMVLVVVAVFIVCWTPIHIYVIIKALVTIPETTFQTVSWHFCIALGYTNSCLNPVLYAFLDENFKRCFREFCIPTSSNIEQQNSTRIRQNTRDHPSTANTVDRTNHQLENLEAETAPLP
Chain of DOR (P41143 whole entry): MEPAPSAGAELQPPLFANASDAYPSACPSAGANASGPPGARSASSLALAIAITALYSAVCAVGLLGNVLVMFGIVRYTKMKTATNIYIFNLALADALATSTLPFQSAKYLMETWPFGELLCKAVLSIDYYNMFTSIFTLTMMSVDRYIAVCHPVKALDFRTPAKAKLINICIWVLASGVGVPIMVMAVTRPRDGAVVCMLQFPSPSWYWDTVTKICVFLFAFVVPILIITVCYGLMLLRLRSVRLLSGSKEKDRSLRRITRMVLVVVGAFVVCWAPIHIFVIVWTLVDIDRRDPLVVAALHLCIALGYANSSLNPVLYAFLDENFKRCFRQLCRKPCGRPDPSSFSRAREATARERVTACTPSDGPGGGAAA
Chain of KOR (P41145 whole entry): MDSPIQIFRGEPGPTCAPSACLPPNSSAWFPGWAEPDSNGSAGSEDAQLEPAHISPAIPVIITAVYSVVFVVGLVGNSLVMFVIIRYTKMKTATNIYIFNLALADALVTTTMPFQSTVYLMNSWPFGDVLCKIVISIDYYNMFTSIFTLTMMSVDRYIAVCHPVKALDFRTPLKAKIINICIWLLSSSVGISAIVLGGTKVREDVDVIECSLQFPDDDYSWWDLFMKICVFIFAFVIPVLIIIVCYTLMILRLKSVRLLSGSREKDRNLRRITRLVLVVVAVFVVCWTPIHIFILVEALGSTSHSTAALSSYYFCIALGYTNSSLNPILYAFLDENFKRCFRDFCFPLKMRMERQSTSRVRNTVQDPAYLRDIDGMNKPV

Emax (MOR)	activation of KOR (β-arrestin recruitment) (KOR)	Emax (DOR)	activation of CX3CR1 (β-arrestin-1 recruitment) in receptor panel (CX3CR1)	MOR Calcium % DAMGO Inhibition (MOR; antagonist screen, vs EC60 of DAMGO)	DOR Calcium % DPDPE Inhibition (DOR; antagonist screen, vs EC60 of DPDPE)	Compound
11%	not active	6%	weak activation			C/C=C1/CN(CCCCC)CC[C@H]1C(=O)c1cc2ccccc2[nH]1 [WW-12, [(3E,4R)-3-ethylidene-1-pentylpiperidin-4-yl](1H-indol-2-yl)methanone]
0%	not active	0%	weak activation	3%	22%	C/C=C1/CN2CC[C@H]1C(=O)c1[nH]c3ccccc3c1C2 [WW-1, (4E,5R)-4-ethylidene-1,4,5,7-tetrahydro-2,5-ethanoazocino[4,3-b]indol-6(3H)-one]
